Experiments:
[1] = approximate ratio, reportedly; cited from earlier work
[2] = tested on: Normal human dermal fibroblasts (NHDF-AD)
Experimental: Normal human dermal fibroblasts (NHDF-AD: product of Kurabo Industries, Ltd.) were inoculated onto a 24-well plate (1.0×10^4 cells/well), and incubated for four days in 1 ml of DMEM containing 10% FBS(vol/vol). Subsequently, the supernatant of the wells was replaced with 1 ml of fresh DMEM containing 10% FBS(vol/vol), and 5 μl of ethanol solution containing a predetermined concentration of tocopherol or 5 μl of ethanol was added to the concentrations shown in Tables 1 and 2, and […] of 0.045% hydroquinone solution was added, followed by incubation for 24 hours. Then, the supernatant of the wells were removed by replacement with 1 ml of medium, and the number of cells that survived was determined by WST-1 assay.

[3] = J. Act. Oxyg. Free Rad. 3:531-54; cited from earlier work

Compound	ratio of biological activities of α-, β-, γ-, and δ-tocopherols [1]	survival rate, times higher than that of Control 1 [2]	antioxidant activity against oils and fats (rank) [3]	hydroquinone-cytotoxicity-reducing activity (rank among tocopherols) [2]	survival rate compared with Control 1 [2]
Cc1c(C)c2c(c(C)c1O)CC[C@@](C)(CCC[C@H](C)CCC[C@H](C)CCCC(C)C)O2 [α-tocopherol]	approximately 100	more than 1.3 times	lowest	–	–
Cc1cc(O)c(C)c2c1O[C@](C)(CCC[C@H](C)CCC[C@H](C)CCCC(C)C)CC2 [β-tocopherol]	~24	–	–	–	–
Cc1c(O)cc2c(c1C)O[C@](C)(CCC[C@H](C)CCC[C@H](C)CCCC(C)C)CC2 [γ-tocopherol]	~4	more than 2.3 times	–	second highest	–
Cc1cc(O)cc2c1O[C@](C)(CCC[C@H](C)CCC[C@H](C)CCCC(C)C)CC2 [δ-tocopherol]	~0.1	–	highest	highest	remarkably higher survival rate

From US20070254947A1, “Composition for external use” (ROHTO PHARMACEUTICAL CO., LTD., priority 2006, published 2007)
